Source: the supplement of paper PMC10307832

What was measured:
Experiment in all cases: relative viability (nuclei count vs DMSO), 5 days (fraction); higher = more cells survive
NCI-H2126 = tested on: NCI-H2126
Procedure, shortened: (§1)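 After 5 days of treatment, lung cancer cells in 1536-well plates were fixed and stained in a single step (final 0.05% Triton X-100, 1% formaldehyde, 1 ug/ml Hoechst) and their nuclei counted on 4× images. Treatment had been applied by pin tool the day after seeding as one drug alone or as a fixed anchor-drug dose with five library-drug doses (not always all listed) in √10 steps. Relative viability is the nuclei count of treated wells divided by that of vehicle wells, and values are medians of duplicate plates.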

LC-2-ad = tested on: LC-2-ad
Procedure, shortened: as §1

EPLC-272H = tested on: EPLC-272H
Procedure, shortened: as §1

NCI-H2087 = tested on: NCI-H2087
Procedure, shortened: as §1

ChaGo-K-1 = tested on: ChaGo-K-1
Procedure, shortened: as §1

LCLC-97TM1 = tested on: LCLC-97TM1
Procedure, shortened: as §1

NCI-H23 = tested on: NCI-H23
Procedure, shortened: as §1

HCC-827 = tested on: HCC-827
Procedure, shortened: as §1

NCI-H520 = tested on: NCI-H520
Procedure, shortened: as §1

NCI-H2347 = tested on: NCI-H2347
Procedure, shortened: as §1

NCI-H2405 = tested on: NCI-H2405
Procedure, shortened: as §1

NCI-H1915 = tested on: NCI-H1915
Procedure, shortened: as §1

NCI-H1666 = tested on: NCI-H1666
Procedure, shortened: as §1

PC-14 = tested on: PC-14
Procedure, shortened: as §1

201T = tested on: 201T
Procedure, shortened: as §1

NCI-H647 = tested on: NCI-H647
Procedure, shortened: as §1

HCC-78 = tested on: HCC-78
Procedure, shortened: as §1

RERF-LC-KJ = tested on: RERF-LC-KJ
Procedure, shortened: as §1

COR-L 105 = tested on: COR-L 105
Procedure, shortened: as §1

H3255 = tested on: H3255
Procedure, shortened: as §1

NCI-H650 = tested on: NCI-H650
Procedure, shortened: as §1

NCI-H661 = tested on: NCI-H661
Procedure, shortened: as §1

`O=c1cc(N2CCOCC2)oc2c(-c3cccc4c3sc3ccccc34)cccc12` + CC(=O)c1c(C)c2cnc(Nc3ccc(N4CCNCC4)cn3)nc2n(C2CCCC2)c1=O [Palbociclib] (partner 0.5 µM) showed a relative viability (NCI-H2126; first compound 0.01 µM) of 0.349, a relative viability (NCI-H2126; first compound 0.03162 µM) of 0.339 and a relative viability (NCI-H2126; first compound 0.1 µM) of 0.318. For the same compound, the relative viability (NCI-H2126; first compound 0.3162 µM) was 0.331, the relative viability (NCI-H2126; first compound 1 µM) was 0.345 and the relative viability (LC-2-ad; first compound 0.01 µM) was 0.504. The relative viability (LC-2-ad; first compound 0.03162 µM) was 0.5, the relative viability (LC-2-ad; first compound 0.1 µM) was 0.572 and the relative viability (LC-2-ad; first compound 0.3162 µM) was 0.493. It also gave a relative viability (LC-2-ad; first compound 1 µM) of 0.554, a relative viability (EPLC-272H; first compound 0.01 µM) of 0.302 and a relative viability (EPLC-272H; first compound 0.03162 µM) of 0.31. It also gave a relative viability (EPLC-272H; first compound 0.1 µM) of 0.274, a relative viability (EPLC-272H; first compound 0.3162 µM) of 0.325 and a relative viability (EPLC-272H; first compound 1 µM) of 0.325. For the same compound, the relative viability (NCI-H2087; first compound 0.01 µM) was 0.218, the relative viability (NCI-H2087; first compound 0.03162 µM) was 0.245 and the relative viability (NCI-H2087; first compound 0.1 µM) was 0.221. For the same compound, the relative viability (NCI-H2087; first compound 0.3162 µM) was 0.229, the relative viability (NCI-H2087; first compound 1 µM) was 0.217 and the relative viability (ChaGo-K-1; first compound 0.01 µM) was 0.884. For the same compound, the relative viability (ChaGo-K-1; first compound 0.03162 µM) was 0.91, the relative viability (ChaGo-K-1; first compound 0.1 µM) was 0.964 and the relative viability (ChaGo-K-1; first compound 0.3162 µM) was 0.947. The relative viability (ChaGo-K-1; first compound 1 µM) was 0.954, the relative viability (LCLC-97TM1; first compound 0.01 µM) was 0.218 and the relative viability (LCLC-97TM1; first compound 0.03162 µM) was 0.194. The relative viability (LCLC-97TM1; first compound 0.1 µM) was 0.241, the relative viability (LCLC-97TM1; first compound 0.3162 µM) was 0.21 and the relative viability (LCLC-97TM1; first compound 1 µM) was 0.218. It also gave a relative viability (NCI-H23; first compound 0.01 µM) of 0.464, a relative viability (NCI-H23; first compound 0.03162 µM) of 0.524 and a relative viability (NCI-H23; first compound 0.3162 µM) of 0.485. It also gave a relative viability (NCI-H23; first compound 1 µM) of 0.473, a relative viability (HCC-827; first compound 0.01 µM) of 0.52 and a relative viability (HCC-827; first compound 0.03162 µM) of 0.485. The relative viability (HCC-827; first compound 0.1 µM) was 0.457, the relative viability (HCC-827; first compound 0.3162 µM) was 0.53 and the relative viability (HCC-827; first compound 1 µM) was 0.47. The relative viability (NCI-H520; first compound 0.01 µM) was 0.238, the relative viability (NCI-H520; first compound 0.03162 µM) was 0.224 and the relative viability (NCI-H520; first compound 0.1 µM) was 0.207. The relative viability (NCI-H520; first compound 0.3162 µM) was 0.235, the relative viability (NCI-H520; first compound 1 µM) was 0.202 and the relative viability (NCI-H2347; first compound 0.01 µM) was 0.365. It also gave a relative viability (NCI-H2347; first compound 0.03162 µM) of 0.414, a relative viability (NCI-H2347; first compound 0.1 µM) of 0.445 and a relative viability (NCI-H2347; first compound 0.3162 µM) of 0.424. The relative viability (NCI-H2347; first compound 1 µM) was 0.39, the relative viability (NCI-H2405; first compound 0.01 µM) was 0.566 and the relative viability (NCI-H2405; first compound 0.03162 µM) was 0.542. The relative viability (NCI-H2405; first compound 0.1 µM) was 0.531, the relative viability (NCI-H2405; first compound 0.3162 µM) was 0.513 and the relative viability (NCI-H2405; first compound 1 µM) was 0.527. It also gave a relative viability (NCI-H1915; first compound 0.01 µM) of 0.529, a relative viability (NCI-H1915; first compound 0.03162 µM) of 0.555 and a relative viability (NCI-H1915; first compound 0.1 µM) of 0.61. For the same compound, the relative viability (NCI-H1915; first compound 0.3162 µM) was 0.461, the relative viability (NCI-H1915; first compound 1 µM) was 0.526 and the relative viability (NCI-H1666; first compound 0.01 µM) was 0.663. It also gave a relative viability (NCI-H1666; first compound 0.03162 µM) of 0.593, a relative viability (NCI-H1666; first compound 0.1 µM) of 0.709 and a relative viability (NCI-H1666; first compound 0.3162 µM) of 0.651. It also gave a relative viability (NCI-H1666; first compound 1 µM) of 0.643, a relative viability (PC-14; first compound 0.01 µM) of 0.436 and a relative viability (PC-14; first compound 0.03162 µM) of 0.479. The relative viability (PC-14; first compound 0.1 µM) was 0.541, the relative viability (PC-14; first compound 0.3162 µM) was 0.581 and the relative viability (PC-14; first compound 1 µM) was 0.596. The relative viability (201T; first compound 0.01 µM) was 0.346, the relative viability (201T; first compound 0.03162 µM) was 0.356 and the relative viability (201T; first compound 0.1 µM) was 0.356. The relative viability (201T; first compound 0.3162 µM) was 0.342, the relative viability (201T; first compound 1 µM) was 0.353 and the relative viability (NCI-H647; first compound 0.01 µM) was 0.392. It also gave a relative viability (NCI-H647; first compound 0.03162 µM) of 0.409, a relative viability (NCI-H647; first compound 0.1 µM) of 0.387 and a relative viability (NCI-H647; first compound 0.3162 µM) of 0.364. The relative viability (NCI-H647; first compound 1 µM) was 0.314, the relative viability (HCC-78; first compound 0.01 µM) was 0.493 and the relative viability (HCC-78; first compound 0.03162 µM) was 0.482. For the same compound, the relative viability (HCC-78; first compound 0.1 µM) was 0.437, the relative viability (HCC-78; first compound 0.3162 µM) was 0.5 and the relative viability (HCC-78; first compound 1 µM) was 0.446. The relative viability (RERF-LC-KJ; first compound 0.01 µM) was 1.06, the relative viability (RERF-LC-KJ; first compound 0.03162 µM) was 1.1 and the relative viability (RERF-LC-KJ; first compound 0.1 µM) was 1.04. The relative viability (RERF-LC-KJ; first compound 0.3162 µM) was 1.09, the relative viability (RERF-LC-KJ; first compound 1 µM) was 1.08 and the relative viability (COR-L 105; first compound 0.01 µM) was 0.41. The relative viability (COR-L 105; first compound 0.03162 µM) was 0.468, the relative viability (COR-L 105; first compound 0.1 µM) was 0.438 and the relative viability (COR-L 105; first compound 0.3162 µM) was 0.409. For the same compound, the relative viability (COR-L 105; first compound 1 µM) was 0.386, the relative viability (H3255; first compound 0.01 µM) was 0.314 and the relative viability (H3255; first compound 0.03162 µM) was 0.325. For the same compound, the relative viability (H3255; first compound 0.1 µM) was 0.306, the relative viability (H3255; first compound 0.3162 µM) was 0.314 and the relative viability (H3255; first compound 1 µM) was 0.312. The relative viability (NCI-H650; first compound 0.01 µM) was 0.348, the relative viability (NCI-H650; first compound 0.03162 µM) was 0.383 and the relative viability (NCI-H650; first compound 0.3162 µM) was 0.356. For the same compound, the relative viability (NCI-H650; first compound 1 µM) was 0.347, the relative viability (NCI-H661; first compound 0.01 µM) was 0.417 and the relative viability (NCI-H661; first compound 0.03162 µM) was 0.41. It also gave a relative viability (NCI-H661; first compound 0.1 µM) of 0.375, a relative viability (NCI-H661; first compound 0.3162 µM) of 0.416 and a relative viability (NCI-H661; first compound 1 µM) of 0.398.
